According to US9447044B2, “Thioaryl derivatives as GPR120 agonists” (LG LIFE SCIENCES LTD., priority 2012, dated 2016):

What follows are compounds tested against T1, hGPR120 (Homo sapiens, UniProt Q5NUL3) (assay: Measurement of activity of GPR120 agonist (cell-based assay), calcium fluorescence). Details: CHO-K1 cells expressing Ga16 and hGPR120; Calcium 5 dye fluorescence; activity class.
T1 construct: expressed in transfected cells; host or cells: CHO-K1
T1 sequence (Q5NUL3 1-361): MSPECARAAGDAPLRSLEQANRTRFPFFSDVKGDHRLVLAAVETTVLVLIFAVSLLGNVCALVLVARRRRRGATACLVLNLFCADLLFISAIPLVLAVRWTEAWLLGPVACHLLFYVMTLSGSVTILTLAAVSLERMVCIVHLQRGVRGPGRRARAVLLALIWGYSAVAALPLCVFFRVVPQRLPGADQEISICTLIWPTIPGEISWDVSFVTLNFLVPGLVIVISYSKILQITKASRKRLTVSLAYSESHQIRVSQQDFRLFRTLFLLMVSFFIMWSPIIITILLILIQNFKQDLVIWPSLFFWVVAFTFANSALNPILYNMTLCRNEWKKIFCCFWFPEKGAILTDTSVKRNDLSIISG
Experimental: CHO-K1 cells expressing Ga16 and hGPR120 were dispensed into each well of a 96-well plate (3×10^4 cells/100 μl/well) and then incubated in 5% CO2, 37° C. incubator for 18 hours. Each well was treated with 100 μl of Calcium 5 dye (Molecular Devices) solution including 2% DMSO and then incubated in 5% CO2, 37° C. incubator for 1 hour. Serially diluted GPR120 agonists were prepared to a final concentration of 0.5% DMSO in a 96-well plate. Each well was treated with 50 μl of the agonist compounds using Plexstation II, and then fluorescence was measured at Ex 485 nm, Em 525 nm.
Fluorescence increased by the serially diluted GPR120 agonists is calculated as a relative percent (%) value based on the fluorescence represented by the treatment of 0.1% DMSO only. […] The calculation of measurement was carried out by using statistical software (Prizm).
Activity is denoted based on the following criteria: A=>20 μM, B=[…], C=2˜0.2 μM, D=<0.2 μM

Row | EC50 | Structure (SMILES)
1 | 200 to 2000 nM | O=C(O)CCc1cc(F)c(OCc2cccnc2SCC(F)(F)F)c(F)c1 [Example 18, 3-{3,5-difluoro-4-[2-(2,2,2-trifluoro-ethylsulfanyl)-pyridin-3-ylmethoxy]-phenyl}-propionic acid]
2 | < 200 nM | CCC(C)Sc1ncccc1COc1c(F)cc(CCC(=O)O)cc1F (centres unmarked) [Example 19, 3-[4-(2-sec-butylsulfanyl-pyridin-3-ylmethoxy)-3,5-difluoro-phenyl]-propionic acid]
3 | 200 to 2000 nM | CC(C)Sc1nccnc1COc1c(F)cc(CCC(=O)O)cc1F [Example 20, 3-[3,5-difluoro-4-(3-isopropylsulfanyl-pyrazin-2-ylmethoxy)-phenyl]-propionic acid]
4 | 200 to 2000 nM | O=C(O)CCc1cc(F)c(OCc2cccnc2SC2CCCCC2)c(F)c1 [Example 22, 3-[4-(2-cyclohexylsulfanyl-pyridin-3-ylmethoxy)-3,5-difluoro-phenyl]-propionic acid]
5 | < 200 nM | O=C(O)CCc1cc(F)c(OCc2cccnc2SC2CCC2)c(F)c1 [Example 23, 3-[4-(2-cyclobutylsulfanyl-pyridin-3-ylmethoxy)-3,5-difluoro-phenyl]-propionic acid]
6 | 200 to 2000 nM | CC(C)Sc1nccc(COc2c(F)cc(CCC(=O)O)cc2F)n1 [Example 24, 3-[3,5-difluoro-4-(2-isopropylsulfanyl-pyrimidin-4-ylmethoxy)-phenyl]-propionic acid]
7 | < 200 nM | CC(Cc1ccc(OCc2cccnc2SC2CCCC2)cc1)C(=O)O (centres unmarked) [Example 25, 3-[4-(2-cyclopentylsulfanyl-pyridin-3-ylmethoxy)-phenyl]-2-methyl-propionic acid]
8 | < 200 nM | CCCCSc1ncccc1COc1c(F)cc(CCC(=O)O)cc1F [Example 26, 3-[4-(2-butylsulfanyl-pyridin-3-ylmethoxy)-3,5-difluoro-phenyl]-propionic acid]
9 | 200 to 2000 nM | O=C(O)CCc1cc(F)c(OCc2cccnc2SCCC(F)(F)F)c(F)c1 [Example 27, 3-{3,5-difluoro-4-[2-(3,3,3-trifluoro-propylsulfanyl)-pyridin-3-ylmethoxy]-phenyl}-propionic acid]
10 | 200 to 2000 nM | CC(C)(C)CSc1ncccc1COc1c(F)cc(CCC(=O)O)cc1F [Example 28, 3-{4-[2-(2,2-dimethyl-propylsulfanyl)-pyridin-3-ylmethoxy]-3,5-difluoro-phenyl}-propionic acid]
11 | < 200 nM | O=C(O)CCc1ccc(OCc2cccc(SC3CCCC3)n2)cc1 [Example 29]
12 | < 200 nM | O=C(O)CCc1cc(F)c(OCc2cccc(SC3CCCC3)n2)c(F)c1 [Example 30]
13 | < 200 nM | O=C(O)CCc1cc(F)c(OCc2cccc(SC3CCCCC3)n2)c(F)c1 [Example 31]
14 | 200 to 2000 nM | CCc1ccc(COc2c(F)cc(CCC(=O)O)cc2F)c(SC(C)C)n1 [Example 32]
15 | < 200 nM | CC(C)Sc1cccc(COc2c(F)cc(CCC(=O)O)cc2F)n1 [Example 33, 3-[3,5-difluoro-4-(6-isopropylsulfanyl-pyridin-2-ylmethoxy)-phenyl]-propionic acid]
16 | < 200 nM | CCC(C)Sc1cccc(COc2c(F)cc(CCC(=O)O)cc2F)n1 (centres unmarked) [Example 34, 3-[4-(6-sec-butylsulfanyl-pyridin-2-ylmethoxy)-3,5-difluoro-phenyl]-propionic acid]

Row | EC50 | Structure (SMILES)
17 | < 200 nM | O=C(O)C1CC1c1cc(F)c(OCc2cccc(SC3CCCC3)n2)c(F)c1 (centres unmarked) [Example 35, 2-[4-(6-cyclopentylsulfanyl-pyridin-2-ylmethoxy)-3,5-difluoro-phenyl]-cyclopropane carboxylic acid]
18 | < 200 nM | O=C(O)C1CC1c1cc(F)c(OCc2cccnc2SC2CCC2)c(F)c1 (centres unmarked) [Example 36, 2-[4-(2-cyclobutylsulfanyl-pyridin-3-ylmethoxy)-3,5-difluoro-phenyl]-cyclopropane carboxylic acid]
19 | < 200 nM | CC(Cc1ccc(OCc2cccnc2SC2CCC2)c(F)c1)C(=O)O (centres unmarked) [Example 37, 3-[4-(2-cyclobutylsulfanyl-pyridin-3-ylmethoxy)-3-fluoro-phenyl]-2-methyl-propionic acid]
20 | < 200 nM | CC(Cc1ccc(OCc2cccnc2SC2CCCC2)c(F)c1)C(=O)O (centres unmarked) [Example 38, 3-[4-(2-cyclopentylsulfanyl-pyridin-3-ylmethoxy)-3-fluoro-phenyl]-2-methyl-propionic acid]
21 | < 200 nM | CCC(C)Sc1ncccc1COc1ccc(CC(C)C(=O)O)cc1F (centres unmarked) [Example 39, 3-[4-(2-sec-butylsulfanyl-pyridin-3-ylmethoxy)-3-fluoro-phenyl]-2-methyl-propionic acid]
22 | < 200 nM | CC(Cc1ccc(OCc2cccnc2SCC2CC2)c(F)c1)C(=O)O (centres unmarked) [Example 40, 3-[4-(2-cyclopropylmethylsulfanyl-pyridin-3-ylmethoxy)-3-fluoro-phenyl]-2-methyl-propionic acid]
23 | < 200 nM | CC(C)Sc1ncccc1COc1c(F)cc(CC(C)C(=O)O)cc1F (centres unmarked) [Example 41, 3-[3,5-difluoro-4-(2-isopropylsulfanyl-pyridin-3-ylmethoxy)-phenyl]-2-methyl-propionic acid]
24 | 200 to 2000 nM | CCC(C)Sc1ncccc1COc1c(F)cc(CC(C)C(=O)O)cc1F (centres unmarked) [Example 42, 3-[4-(2-sec-butylsulfanyl-pyridin-3-ylmethoxy)-3,5-difluoro-phenyl]-2-methyl-propionic acid]
25 | < 200 nM | COc1ccc(COc2c(F)cc(CCC(=O)O)cc2F)c(SC(C)C)n1 [Example 43, 3-[3,5-difluoro-4-(2-isopropylsulfanyl-6-methoxy-pyridin-3-ylmethoxy)-phenyl]-propionic acid]
26 | < 200 nM | CC(Cc1cc(F)c(OCc2cccc(SC3CCCC3)n2)c(F)c1)C(=O)O (centres unmarked) [Example 44, 3-[4-(6-cyclopentylsulfanyl-pyridin-2-ylmethoxy)-3,5-difluoro-phenyl]-2-methyl-propionic acid]
27 | < 200 nM | Cc1ccc(COc2c(F)cc(CCC(=O)O)cc2F)c(SC2CCCC2)n1 [Example 45, 3-[4-(2-cyclopentylsulfanyl-6-methyl-pyridin-3-ylmethoxy)-3,5-difluoro-phenyl]-propionic acid]
28 | < 200 nM | CC(Cc1cc(F)c(OCc2cccc(SC3CCC3)n2)c(F)c1)C(=O)O (centres unmarked) [Example 46, 3-[4-(6-cyclobutylsulfanyl-pyridin-2-ylmethoxy)-3,5-difluoro-phenyl]-2-methyl-propionic acid]
29 | < 200 nM | CC(Cc1cc(F)c(OCc2cccnc2SC2CCCC2)c(F)c1)C(=O)O (centres unmarked) [Example 47, 3-[4-(2-cyclopentylsulfanyl-pyridin-3-ylmethoxy)-3,5-difluoro-phenyl]-2-methyl-propionic acid]
30 | 200 to 2000 nM | CCC(C)Sc1cccc(COc2c(F)cc(CC(C)C(=O)O)cc2F)n1 (centres unmarked) [Example 48, 3-[4-(6-sec-butylsulfanyl-pyridin-2-ylmethoxy)-3,5-difluoro-phenyl]-2-methyl-propionic acid]
31 | < 200 nM | CC(C)Sc1cccc(COc2c(F)cc(CC(C)C(=O)O)cc2F)n1 (centres unmarked) [Example 49, 3-[3,5-difluoro-4-(6-isopropylsulfanyl-pyridin-2-ylmethoxy)-phenyl]-2-methyl-propionic acid]

Same assay, conditions: CHO-K1 cells expressing Ga16 and hGPR120; Calcium 5 dye fluorescence; numeric value

Row | EC50 | Structure (SMILES)
32 | 68 nM | O=C(O)CCCc1ccc(OCc2cccnc2SC2CCCC2)cc1 [Example 21, 4-[4-(2-cyclopentylsulfanyl-pyridin-3-ylmethoxy)-phenyl]-butyric acid]
